According to patent US12357598B2, “Treatment of neurodevelopmental disorders” (THE REGENTS OF THE UNIVERSITY OF CALIFORNIA, priority 2018, dated 2025):

System: ddY mice
Assay: Novel object recognition test (NORT), offspring after MIA
Assay type: in vivo, mouse
Method: Experiments of TPPU in drinking water. For experiment of TPPU (synthesized at UC Davis, CA) in drinking water in juvenile and adolescent stages, TPPU (15 mg/L) or water in drinking water was given in the male offspring from P28 to P56. Subsequently, normal water was given to all groups for 4 weeks (P57-P84). Behavioral tests of adult offspring were performed during adulthood (P70-P84) after prenatal poly(I:C) injections (FIG. 4A).
For experiment of TPPU in drinking water in pregnant stages, TPPU (15 mg/L) or water in drinking water was given in the pregnant mice from E12 to P21. Subsequently, normal water was given to all groups for […] (P21-P42). Behavioral tests of offspring were performed during juvenile stage (P28-P42) after prenatal poly(I:C) injections (FIG. 6A).
Novel Object Recognition Test (NORT): Mice were habituated for 10 minutes in the box for 3 straight days. At 4th day, two objects (differing in shape and color but of similar size) were placed in the box 35.5 cm apart (symmetrically), and each animal was allowed to explore in the box for 5 minutes. […] The time that mice spent exploring each object was recorded. […] The mice were then allowed to explore freely for 5 minutes, and the time spent exploring each object was recorded. […]

## polyriboinosinic-polyribocytidilic acid [Poly(I:C)]
Adult offspring after prenatal poly(I:C) exposure
  exploratory preference in NORT: Decreased
Juvenile offspring, poly(I:C)+water group vs saline+water group
  exploratory preference, retention session of NORT: significantly lower
